Assay results as given in patent US11542313B2, “Incretin analogs and uses thereof” (Eli Lilly and Company, priority 2017, dated 2023).
*1 amine or outer side, *2 acyl side, *3 side chain or, on linkers, in order; H or OH if unused. Where a SMILES comes first, the peptide text is derived from it. Side-chain parts run from the residue outwards. [ ]: non-standard residue; d: D form. The star is where a group is joined. C20 diacid = O=C(O)CCCCCCCCCCCCCCCCCCC(=O)*; γGlu = O=C(O)[C@H](CCC(=O)[*:2])N[*:1]; αMeL = CC(C)C[C@](C)(N)C(=O)O; αMeK = C[C@](N)(CCCCN)C(=O)O; AEEA = NCCOCCOCC(=O)O; Aib = CC(C)(N)C(=O)O

Legend:
[1] = rat, in vivo, sc, 100 nmol/kg
Method: (§3) The pharmacokinetics of the exemplary analogs are evaluated following a single subcutaneous administration of 100 nM/kg to male Sprague Dawley rats. Blood samples are collected over 120 hours, and resulting individual plasma concentrations are used to calculate pharmacokinetic parameters. Peptide plasma (K3 EDTA) concentrations are determined using a qualified LC/MS method that measured the intact mass of the analog. Each peptide and an analog as an internal standard are extracted from 100% specie specified plasma using methanol with 0.1% formic acid. A Thermo Q-Exactive, High Resolution Instrument, and a Thermo Easy Spray PepMap are combined for LC/MS detection.

[2] = target: T1, human glucagon receptor (GcgR) (Homo sapiens, UniProt P47871); test: Radioligand competition binding (SPA), human GcgR membranes; details: HEK293 membranes, SPA, bacitracin present; mean; read-out: Ki, GcgR
T1 construct: expressed in transfected cells; host or cells: HEK293 (membranes)
T1 sequence (P47871 26-477): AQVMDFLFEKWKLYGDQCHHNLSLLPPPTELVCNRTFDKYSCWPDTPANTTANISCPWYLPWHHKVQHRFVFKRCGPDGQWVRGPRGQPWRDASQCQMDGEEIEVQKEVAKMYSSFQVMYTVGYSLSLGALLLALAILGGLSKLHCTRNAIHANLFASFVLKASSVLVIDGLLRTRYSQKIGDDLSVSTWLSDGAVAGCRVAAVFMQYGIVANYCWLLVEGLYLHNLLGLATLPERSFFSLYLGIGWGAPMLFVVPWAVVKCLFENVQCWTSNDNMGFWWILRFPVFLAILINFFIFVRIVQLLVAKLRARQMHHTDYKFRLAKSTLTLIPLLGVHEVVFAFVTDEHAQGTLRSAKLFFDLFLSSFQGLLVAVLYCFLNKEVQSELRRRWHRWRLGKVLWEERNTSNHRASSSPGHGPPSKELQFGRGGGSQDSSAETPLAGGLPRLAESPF
Source text: (§1) Radioligand competition binding assays are run to determine the equilibrium dissociation constant for exemplary compounds and comparator molecules.
(§2) Competition curves are plotted as the percent specific inhibition (y-axis) versus log concentration of compound (x-axis) and analyzed using a four parameter nonlinear regression fit with variable slope (ABase or Genedata).

[3] = target: hGLP-1R (Homo sapiens, UniProt P43220); test: cAMP assay in HEK293 cells expressing hGLP-1R, 0.1% casein; format: cell-based; details: in the presence of 0.1% casein; read-out: cAMP EC50, GLP-1R
hGLP-1R, sequence (P43220 24-463): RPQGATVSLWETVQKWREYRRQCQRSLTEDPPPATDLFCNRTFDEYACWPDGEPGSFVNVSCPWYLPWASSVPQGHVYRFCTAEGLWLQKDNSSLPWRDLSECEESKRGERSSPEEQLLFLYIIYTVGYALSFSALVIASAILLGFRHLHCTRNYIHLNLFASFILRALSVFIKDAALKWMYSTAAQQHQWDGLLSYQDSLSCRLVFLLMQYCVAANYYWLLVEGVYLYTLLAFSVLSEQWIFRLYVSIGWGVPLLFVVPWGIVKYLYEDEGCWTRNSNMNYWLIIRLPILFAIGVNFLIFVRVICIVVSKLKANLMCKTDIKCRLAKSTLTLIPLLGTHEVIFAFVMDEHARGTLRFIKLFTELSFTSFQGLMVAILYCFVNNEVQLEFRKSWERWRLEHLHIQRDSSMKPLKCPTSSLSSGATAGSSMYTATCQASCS

[4] = target: T2, human GIP receptor (GIPR) (Homo sapiens, UniProt P48546); test: Radioligand competition binding (SPA), human GIPR membranes; details: HEK293 membranes, SPA, bacitracin present; mean; read-out: Ki, GIPR
T2 construct: expressed in transfected cells; host or cells: HEK293 (membranes)
T2 sequence (P48546 22-466): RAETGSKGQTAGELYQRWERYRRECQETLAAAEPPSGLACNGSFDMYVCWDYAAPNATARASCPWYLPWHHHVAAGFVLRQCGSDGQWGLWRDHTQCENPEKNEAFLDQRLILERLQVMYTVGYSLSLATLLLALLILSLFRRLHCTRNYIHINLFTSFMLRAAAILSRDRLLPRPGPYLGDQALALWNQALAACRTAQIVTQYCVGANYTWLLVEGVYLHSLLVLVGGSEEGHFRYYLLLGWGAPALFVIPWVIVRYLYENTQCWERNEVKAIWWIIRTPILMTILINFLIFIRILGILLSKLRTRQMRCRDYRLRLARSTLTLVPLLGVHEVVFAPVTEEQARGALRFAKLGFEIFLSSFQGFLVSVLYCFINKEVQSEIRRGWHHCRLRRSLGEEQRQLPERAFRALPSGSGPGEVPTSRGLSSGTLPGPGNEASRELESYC
Source text: as §1, §2

[5] = target: T3, GLP-1 receptor (GLP-1R) (Homo sapiens, UniProt P43220); test: Radioligand competition binding (SPA), human GLP-1R membranes; details: HEK293 membranes, SPA, bacitracin present; mean; read-out: Ki, GLP-1R
T3 construct: expressed in transfected cells; host or cells: HEK293 (membranes)
T3 sequence (P43220 24-463): as the sequence (P43220 24-463) above
Source text: as §1, §2

[6] = in vivo; details: male, Sprague-Dawley, rat, sc, 100 nmol/kg
Method: as §3

[7] = target: T4, hGcgR (Homo sapiens, UniProt P47871); test: cAMP assay in HEK293 cells expressing hGcgR, 0.1% casein; format: cell-based; details: in the presence of 0.1% casein; read-out: cAMP EC50, GcGR
T4 construct: expressed in transfected cells; host or cells: HEK293
T4 sequence (P47871 26-477): as the sequence (P47871 26-477) above

[8] = target: T5, hGIPR (Homo sapiens, UniProt P48546); test: cAMP assay in HEK293 cells expressing hGIPR, 0.1% casein; format: cell-based; details: in the presence of 0.1% casein; read-out: cAMP EC50, GIPR
T5 construct: expressed in transfected cells; host or cells: HEK293
T5 sequence (P48546 22-466): T2 sequence (P48546 22-466)

| SMILES | AUCINF_D_obs [1] | Ki [2] | EC50 [3] | Ki [4] | Ki [5] | CL/F [6] | Tmax [6] | half-life [6] | EC50 [7] | EC50 [8] |
| --- | --- | --- | --- | --- | --- | --- | --- | --- | --- | --- |
| CC[C@H](C)[C@H](NC(=O)[C@H](Cc1ccccc1)NC(=O)[C@H](C)NC(=O)[C@](C)(CCCCN)NC(=O)[C@H](CCC(N)=O)NC(=O)[C@H](C)NC(=O)[C@H](CCCCNC(=O)COCCOCCNC(=O)COCCOCCNC(=O)CC[C@H](NC(=O)CCCCCCCCCCCCCCCCCCC(=O)O)C(=O)O)NC(=O)[C@H](CCCCN)NC(=O)[C@H](CC(=O)O)NC(=O)[C@H](CC(C)C)NC(=O)[C@](C)(CC(C)C)NC(=O)[C@@H](NC(=O)[C@H](CO)NC(=O)[C@H](Cc1ccc(O)cc1)NC(=O)[C@H](CC(=O)O)NC(=O)[C@H](CO)NC(=O)[C@@H](NC(=O)[C@H](Cc1ccccc1)NC(=O)[C@@H](NC(=O)CNC(=O)[C@H](CCC(N)=O)NC(=O)C(C)(C)NC(=O)[C@@H](N)Cc1ccc(O)cc1)[C@@H](C)O)[C@@H](C)O)[C@@H](C)CC)C(=O)N[C@@H](CCC(=O)O)C(=O)N[C@@H](Cc1ccc(O)cc1)C(=O)N[C@@H](CC(C)C)C(=O)N[C@@H](CC(C)C)C(=O)N[C@@H](C)C(=O)NC(C)(C)C(=O)NCC(=O)N1CCC[C@H]1C(=O)N[C@@H](CO)C(=O)N[C@@H](CO)C(=O)NCC(=O)N[C@@H](C)C(=O)N1CCC[C@H]1C(=O)N1CCC[C@H]1C(=O)N1CCC[C@H]1C(=O)N[C@@H](CO)C(N)=O [Example 1] (H-Y[Aib]QGTFTSDYSI[αMeL]LDKK([AEEA-AEEA-γGlu-C20 diacid])AQ[αMeK]AFIEYLLA[Aib]GPSSGAPPPS-NH2; N-terminus assumed) | 95.7 hr*kg*nmol/L/nmol | 8.41 nM | 0.153 nM | 0.0469 nM | 2.64 nM | 0.173 mL/min/kg | 8 h | 11.7 h | 0.114 nM | 0.0523 nM |
| CC[C@H](C)[C@H](NC(=O)[C@H](Cc1ccccc1)NC(=O)[C@H](C)NC(=O)C(C)(C)NC(=O)[C@H](CCC(N)=O)NC(=O)[C@H](C)NC(=O)[C@H](CCCCNC(=O)COCCOCCNC(=O)CC[C@H](NC(=O)CCCCCCCCCCCCCCCCCCC(=O)O)C(=O)O)NC(=O)[C@H](CCCCN)NC(=O)[C@H](CC(=O)O)NC(=O)[C@H](CC(C)C)NC(=O)[C@H](CC(C)C)NC(=O)[C@@H](NC(=O)[C@H](CO)NC(=O)[C@H](Cc1ccc(O)cc1)NC(=O)[C@H](CC(=O)O)NC(=O)[C@H](CO)NC(=O)[C@@H](NC(=O)[C@H](Cc1ccccc1)NC(=O)[C@@H](NC(=O)CNC(=O)[C@H](CCC(N)=O)NC(=O)C(C)(C)NC(=O)[C@@H](N)Cc1ccc(O)cc1)[C@@H](C)O)[C@@H](C)O)[C@@H](C)CC)C(=O)N[C@@H](CCC(=O)O)C(=O)N[C@@H](Cc1ccc(O)cc1)C(=O)N[C@@H](CC(C)C)C(=O)N[C@@H](CC(C)C)C(=O)N[C@@H](C)C(=O)NC(C)(C)C(=O)NCC(=O)N1CCC[C@H]1C(=O)N[C@@H](CO)C(=O)N[C@@H](CO)C(=O)NCC(=O)N[C@@H](C)C(=O)N1CCC[C@H]1C(=O)N1CCC[C@H]1C(=O)N1CCC[C@H]1C(=O)N[C@@H](CO)C(N)=O [Example 4] (H-Y[Aib]QGTFTSDYSILLDKK([AEEA-γGlu-C20 diacid])AQ[Aib]AFIEYLLA[Aib]GPSSGAPPPS-NH2) | 140 hr*kg*nmol/L/nmol | 2.55 nM | 0.18 nM | 0.0374 nM | 3.54 nM | 0.12 mL/min/kg | 16 h | 19.9 h | 0.0674 nM | 0.0648 nM |
| CC[C@H](C)[C@H](NC(=O)[C@H](Cc1ccccc1)NC(=O)[C@H](C)NC(=O)C(C)(C)NC(=O)[C@H](CCC(N)=O)NC(=O)[C@H](C)NC(=O)[C@H](CCCCNC(=O)COCCOCCNC(=O)CC[C@H](NC(=O)CCCCCCCCCCCCCCCCCCC(=O)O)C(=O)O)NC(=O)[C@H](CCCCN)NC(=O)[C@H](CC(=O)O)NC(=O)[C@H](CC(C)C)NC(=O)[C@](C)(CC(C)C)NC(=O)[C@@H](NC(=O)[C@H](CO)NC(=O)[C@H](Cc1ccc(O)cc1)NC(=O)[C@H](CC(=O)O)NC(=O)[C@H](CO)NC(=O)[C@@H](NC(=O)[C@H](Cc1ccccc1)NC(=O)[C@@H](NC(=O)CNC(=O)[C@H](CCC(N)=O)NC(=O)C(C)(C)NC(=O)[C@@H](N)Cc1ccc(O)cc1)[C@@H](C)O)[C@@H](C)O)[C@@H](C)CC)C(=O)N[C@@H](CCC(=O)O)C(=O)N[C@@H](Cc1ccc(O)cc1)C(=O)N[C@@H](CC(C)C)C(=O)N[C@@H](CC(C)C)C(=O)N[C@@H](CCC(=O)O)C(=O)NC(C)(C)C(=O)NCC(=O)N1CCC[C@H]1C(=O)N[C@@H](CO)C(=O)N[C@@H](CO)C(=O)NCC(=O)N[C@@H](C)C(=O)N1CCC[C@H]1C(=O)N1CCC[C@H]1C(=O)N1CCC[C@H]1C(=O)N[C@@H](CO)C(N)=O [Example 13] (H-Y[Aib]QGTFTSDYSI[αMeL]LDKK([AEEA-γGlu-C20 diacid])AQ[Aib]AFIEYLLE[Aib]GPSSGAPPPS-NH2) | 205.7 hr*kg*nmol/L/nmol | 1.91 nM | 0.125 nM | 0.0452 nM | 6.43 nM | 0.0817 mL/min/kg | 20 h | 21.7 h | 0.0815 nM | 0.0391 nM |
| CC[C@H](C)[C@H](NC(=O)[C@H](Cc1ccccc1)NC(=O)[C@H](C)NC(=O)C(C)(C)NC(=O)[C@H](CCC(N)=O)NC(=O)[C@H](C)NC(=O)[C@H](CCCCNC(=O)COCCOCCNC(=O)CC[C@H](NC(=O)CCCCCCCCCCCCCCCCCCC(=O)O)C(=O)O)NC(=O)[C@H](CCCCN)NC(=O)[C@H](CC(=O)O)NC(=O)[C@H](CC(C)C)NC(=O)[C@H](CC(C)C)NC(=O)[C@@H](NC(=O)[C@H](CO)NC(=O)[C@H](Cc1ccc(O)cc1)NC(=O)[C@H](CC(=O)O)NC(=O)[C@H](CO)NC(=O)[C@@H](NC(=O)[C@H](Cc1ccccc1)NC(=O)[C@@H](NC(=O)CNC(=O)[C@H](CCC(N)=O)NC(=O)C(C)(C)NC(=O)[C@@H](N)Cc1ccc(O)cc1)[C@@H](C)O)[C@@H](C)O)[C@@H](C)CC)C(=O)N[C@@H](CCC(=O)O)C(=O)N[C@@H](Cc1ccc(O)cc1)C(=O)N[C@@H](CC(C)C)C(=O)N[C@@H](CC(C)C)C(=O)N[C@@H](CCC(=O)O)C(=O)NC(C)(C)C(=O)NCC(=O)N1CCC[C@H]1C(=O)N[C@@H](CO)C(=O)N[C@@H](CO)C(=O)NCC(=O)N[C@@H](C)C(=O)N1CCC[C@H]1C(=O)N1CCC[C@H]1C(=O)N1CCC[C@H]1C(=O)N[C@@H](CO)C(N)=O [Example 20] (H-Y[Aib]QGTFTSDYSILLDKK([AEEA-γGlu-C20 diacid])AQ[Aib]AFIEYLLE[Aib]GPSSGAPPPS-NH2; N-terminus assumed) |  | 3.76 nM | 0.149 nM | 0.109 nM | 9.23 nM |  |  |  | 0.0641 nM | 0.0572 nM |
